In patent US12250947B2, “Substituted azaspiro-cycles as herbicides” (SYNGENTA CROP PROTECTION AG, priority 2019, dated 2025):

Assays:
Format in all cases: in vivo
Details in all cases: 250 g/Ha, evaluated after 13 days
[1] = tested on: Lolium perenne (LOLPE); test: Herbicidal glasshouse test, post-emergence, LOLPE
Experimental: (§1) Seeds of a variety of test species are sown in standard soil in pots (Lolium perenne (LOLPE), Setaria faberi (SETFA), Alopecurus myosuroides (ALOMY), Echinochloa crus-galli (ECHCG), Avena fatua (AVEFA)). […] Compounds are applied at 250 g/h. The test plants are then grown in a glasshouse under controlled conditions in a glasshouse (at 24/16° C., day/night; 14 hours light; 65% humidity) and watered twice daily. After 13 days for pre and post-emergence, the test is evaluated for the percentage damage caused to the plant. […] NT=not tested.

[2] = tested on: Echinochloa crus-galli (ECHCG); test: Herbicidal glasshouse test, post-emergence, ECHCG
Experimental: as §1

[3] = tested on: Avena fatua (AVEFA); test: Herbicidal glasshouse test, pre-emergence, AVEFA
Experimental: as §1

[4] = tested on: Echinochloa crus-galli (ECHCG); test: Herbicidal glasshouse test, pre-emergence, ECHCG
Experimental: as §1

[5] = tested on: Lolium perenne (LOLPE); test: Herbicidal glasshouse test, pre-emergence, LOLPE
Experimental: as §1

[6] = tested on: Setaria faberi (SETFA); test: Herbicidal glasshouse test, pre-emergence, SETFA
Experimental: as §1

[7] = tested on: Alopecurus myosuroides (ALOMY); test: Herbicidal glasshouse test, pre-emergence, ALOMY
Experimental: as §1

[8] = tested on: Alopecurus myosuroides (ALOMY); test: Herbicidal glasshouse test, post-emergence, ALOMY
Experimental: as §1

[9] = tested on: Avena fatua (AVEFA); test: Herbicidal glasshouse test, post-emergence, AVEFA
Experimental: as §1

[10] = tested on: Setaria faberi (SETFA); test: Herbicidal glasshouse test, post-emergence, SETFA
Experimental: as §1

Compound | percentage damage caused to the plant, five-point scale, LOLPE [1] | percentage damage caused to the plant, five-point scale, ECHCG [2] | percentage damage caused to the plant, five-point scale, AVEFA [3] | percentage damage caused to the plant, five-point scale, ECHCG [4] | percentage damage caused to the plant, five-point scale, LOLPE [5] | percentage damage caused to the plant, five-point scale, SETFA [6] | percentage damage caused to the plant, five-point scale, ALOMY [7] | percentage damage caused to the plant, five-point scale, ALOMY [8] | percentage damage caused to the plant, five-point scale, AVEFA [9] | percentage damage caused to the plant, five-point scale, SETFA [10]
CC#Cc1cc(C)c(C2C(=O)CC3(CCN(C(=O)C(=O)OCC)CC3)CC2=O)c(C)c1 [Compound A2] | 5 (5=80-100%) | 5 (5=80-100%) | 1 (1=0-19%) | 4 (4=60-79%) | 3 (3=40-59%) | 5 (5=80-100%) | 0 | 4 (4=60-79%) | 4 (4=60-79%) | 5 (5=80-100%)
CC#Cc1cc(C)c(C2C(=O)CC3(CCN(C(=O)C(=O)NC)CC3)CC2=O)c(C)c1 [Compound A4, 2-[9-(2,6-dimethyl-4-prop-1-ynyl-phenyl)-8,10-dioxo-3-azaspiro[5.5]undecan-3-yl]-N-methyl-2-oxo-acetamide] | 5 (5=80-100%) | 5 (5=80-100%) | 5 (5=80-100%) | 5 (5=80-100%) | 5 (5=80-100%) | 5 (5=80-100%) | 4 (4=60-79%) | 5 (5=80-100%) | 5 (5=80-100%) | 5 (5=80-100%)
CC#Cc1cc(C)c(C2C(=O)CC3(CCN(C(=O)C(=O)N(C)C)CC3)CC2=O)c(C)c1 [Compound A5] | 5 (5=80-100%) | 5 (5=80-100%) | 4 (4=60-79%) | 5 (5=80-100%) | 5 (5=80-100%) | 5 (5=80-100%) | 5 (5=80-100%) | 5 (5=80-100%) | 5 (5=80-100%) | 5 (5=80-100%)
CC#Cc1cc(C)c(C2C(=O)CC3(CCN(C(=O)C(=O)Nc4ccccn4)CC3)CC2=O)c(C)c1 [Compound A6] | 5 (5=80-100%) | 5 (5=80-100%) | 4 (4=60-79%) | 5 (5=80-100%) | 4 (4=60-79%) | 5 (5=80-100%) | 2 (2=20-39%) | 5 (5=80-100%) | 5 (5=80-100%) | 5 (5=80-100%)
CC#Cc1cc(C)c(C2C(=O)CC3(CCN(C(=O)C(=O)C(C)(C)C)CC3)CC2=O)c(C)c1 [Compound A7] | 5 (5=80-100%) | 5 (5=80-100%) | 3 (3=40-59%) | 5 (5=80-100%) | 5 (5=80-100%) | 5 (5=80-100%) | 3 (3=40-59%) | 5 (5=80-100%) | 5 (5=80-100%) | 5 (5=80-100%)
CC#Cc1cc(C)c(C2C(=O)CC3(CCN(C(=O)C(N)=O)CC3)CC2=O)c(C)c1 [Compound A8] | 5 (5=80-100%) | 5 (5=80-100%) | 5 (5=80-100%) | 5 (5=80-100%) | 5 (5=80-100%) | 5 (5=80-100%) | 5 (5=80-100%) | 5 (5=80-100%) | 5 (5=80-100%) | 5 (5=80-100%)
CC#Cc1cc(C)c(C2C(=O)CC3(CCN(C(=O)C(=O)NC(C)(C)C)CC3)CC2=O)c(C)c1 [Compound A9, N-tert-butyl-2-[9-(2,6-dimethyl-4-prop-1-ynyl-phenyl)-8,10-dioxo-3-azaspiro[5.5]undecan-3-yl]-2-oxo-acetamide] | 5 (5=80-100%) | 5 (5=80-100%) | 5 (5=80-100%) | 5 (5=80-100%) | 5 (5=80-100%) | 5 (5=80-100%) | 5 (5=80-100%) | 4 (4=60-79%) | 5 (5=80-100%) | 5 (5=80-100%)
CC#Cc1cc(C)c(C2=C(OC(=O)OC)CC3(CCN(C(=O)C(C)=O)CC3)CC2=O)c(C)c1 [Compound P1, [9-(2,6-dimethyl-4-prop-1-ynyl-phenyl)-10-oxo-3-(2-oxopropanoyl)-3-azaspiro[5.5]undec-8-en-8-yl] methyl carbonate] | 5 (5=80-100%) | 5 (5=80-100%) | 5 (5=80-100%) | 5 (5=80-100%) | 5 (5=80-100%) | 5 (5=80-100%) | 5 (5=80-100%) | 5 (5=80-100%) | 5 (5=80-100%) | 5 (5=80-100%)
